Results from patent publication US20040253675A1, “Method for GPCR assay with a coexpressed Galpha protein” (Hitachi, Ltd., priority 2003, published 2004).

Key:
M4 receptor = assay: Ca-dependent Cl response in Xenopus oocytes coexpressing M4 receptor and chimeric Gqα subunit (G11α/G14α); assay type: cell-based; conditions: Xenopus oocyte, chimeric Gqα subunit coexpressed, clamped at −60 mV by TEVC, FIG. 5
Method: They were subjected to coexpression in Xenopus oocytes. […] Res. Commun. 201 (2), 894-901 (1994).
Thereafter, oocytes were cultured.

H2 receptor = H2 receptor (Homo sapiens, UniProt P25021); conditions: Xenopus oocyte
H2 receptor, sequence (P25021 whole entry): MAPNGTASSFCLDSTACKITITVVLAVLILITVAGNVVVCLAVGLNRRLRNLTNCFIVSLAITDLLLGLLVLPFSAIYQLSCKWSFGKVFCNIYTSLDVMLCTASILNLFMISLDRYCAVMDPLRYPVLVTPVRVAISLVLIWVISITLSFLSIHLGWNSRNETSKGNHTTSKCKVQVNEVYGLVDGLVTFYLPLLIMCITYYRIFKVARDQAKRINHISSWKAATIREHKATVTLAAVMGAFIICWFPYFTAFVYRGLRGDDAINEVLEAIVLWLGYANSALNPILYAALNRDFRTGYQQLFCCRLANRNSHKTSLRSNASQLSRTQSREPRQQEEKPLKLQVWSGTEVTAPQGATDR
Text: Oocytes removed from a female Xenopus were selected by a conventional method. RNA encoding the H1 and H2 receptors, M1 to M5 receptors, δ opioid receptors, or mGlu1 receptors that were synthesized in vitro were transfected into the selected oocyte together with RNA encoding a chimeric Gqα subunit constituted by a portion of the G11 protein α subunit and a portion of the G14 protein α subunit that was similarly synthesized. As a control, an oocyte to which RNA of the chimeric Gqα subunit was not to be transfected was prepared. Thereafter, oocytes were cultured.
The cultured oocytes were clamped at −60 mV by TEVC. […] The occurrence of Ca-dependent Cl response was then assayed.
RNA encoding the H2 receptor was transfected in the oocytes. Simultaneously or 24 hours thereafter, RNA encoding the chimeric Gqα subunit constituted by a portion of the G11α subunit and a portion of the G14α subunit was transfected therein. Thereafter, the ligand responses of these oocytes were assayed by the method described in Example 1.

SMILES | response generated by ligand stimulus at various concentration levels (M4 receptor) | response generated by ligand, chimeric Gqα RNA transfected 24 hours after GPCR RNA compared with simultaneous transfection (H2 receptor; 10 μM ligand, FIG. 6) | response generated by ligand stimulus at various concentration levels (H2 receptor; chimeric Gqα subunit coexpressed, clamped at −60 mV by TEVC, FIG. 5)
CC(=O)OCC[N+](C)(C)C [Ach] | correlations between ligand concentration and size of response |  | 
NCCc1c[nH]cn1 [histamine] |  | greatly increased | correlations between ligand concentration and size of response
